# In ChEMBL document CHEMBL6120996, “Discovery and optimization of 1,2,4-triazole derivatives as novel ferroptosis inhibitors” (Eur J Med Chem, 2025):
# Active and inactive are the calls of the source. The rule behind the calls is not given here.
# What was measured:
# [1] = Microsomal stability in rat liver microsomes assessed as hepatic extraction ratio at 1 uM by LC-MS/MS analysis; assay type: ADME, Microsome; details: read-out: ERH
# [2] = Microsomal stability in human liver microsomes assessed as hepatic clearance at 1 uM by LC-MS/MS analysis; assay type: ADME, Microsome
# [3] = Microsomal stability in human liver microsomes assessed as hepatic extraction ratio at 1 uM by LC-MS/MS analysis; assay type: ADME, Microsome; details: read-out: ERH
# [4] = Metal chelating activity assessed as Fe2+ chelation assessed as absorbance peak at 430 nm by UV-vis spectroscopy; details: dose 1.0 µM
# 786-0 [5] = assay: Metal chelating activity assessed as Fe2+ chelation in human 786-0 cells assessed as intracellular ferrous ion level at 100 uM by FerroOrange fluorescent probe based assay; assay type: cell-based
# [6] = Suppression of autoxidation of liposomes egg ( unknown origin) phosphatidylcholine lipids as substrate at 0.1 to 2.5 uM incubated for 5 min by C11-BODIPY 581/591 dye based fluorescent assay; assay type: functional; details: dose 0.1-2.5 µM
# HT-1080 = assay: Anti-ferroptotic activity in human GPX4 knockout HT-1080 cells assessed as cell viability at 1 uM incubated for 24 hrs by CellTiter-LumiTM plus luminescent cell viability assay; assay type: functional, cell-based
# 786-0 [7] = assay: Effect on FTH1 expression in human 786-0 cells in presence of 0.25 uM RSL3 at 1 uM incubated for 2.5 hrs by Western blot analysis; assay type: functional, cell-based
# SK-HEP1 [8] = assay: Inhibition of RSL3 induced lipid-ROS accumulation in human SK-HEP1 cells at 1 uM incubated for 2.5 hrs by C11-BODIPY 581/591 staining coupled with flow cytometry analysis; assay type: functional, cell-based
# 786-0 [9] = assay: Effect on ACSL4 expression in human 786-0 cells at 1 uM incubated for 2.5 hrs by Western blot analysis; assay type: functional, cell-based
# 786-0 [10] = assay: Inhibition of RSL3-induced ferroptosis in human 786-0 cells assessed as cell protection by assessing cell morphology at 1 uM incubated for 24 hrs; assay type: functional, cell-based
# 786-0 [11] = assay: Inhibition of RSL3-induced ferroptosis in human 786-0 cells assessed as cell viability by assessing cell morphology incubated for 24 hrs by CellTiter-LumiTM plus luminescent cell viability assay; assay type: functional, cell-based; details: 786-0, 24 h
# 786-0 [12] = assay: Effect on FTH1 expression in human 786-0 cells at 1 uM incubated for 2.5 hrs by western blot analysis; assay type: functional, cell-based
# 786-0 [13] = assay: Effect on erastin-induced decrease in GSH level in human 786-0 cells at 1 uM incubated for 10 hrs by Total intracellular GSH assay; assay type: functional, cell-based
# 786-0 [14] = assay: Inhibition of RSL3 induced ferroptosis in human 786-0 cells assessed as cell viability in presence of iFSP1 at 1 uM measured after 24 hrs by CellTiter-LumiTM assay; assay type: functional, cell-based
# 786-0 [15] = assay: Effect on IRP1 expression in human 786-0 cells in presence of 0.25 uM RSL3 at 1 uM incubated for 2.5 hrs by Western blot analysis; assay type: functional, cell-based
# [16] = Antioxidant activity assessed as free radical scavenging activity incubated for 30 mins in dark by DPPH assay relative to control; assay type: functional
# 786-0 [17] = assay: Effect on GPX4 expression in human 786-0 cells at 1 uM incubated for 2.5 hrs by Western blot analysis; assay type: functional, cell-based
# 786-0 [18] = assay: Effect on SLC7A11 expression in human 786-0 cells at 1 uM incubated for 2.5 hrs by Western blot analysis; assay type: functional, cell-based
# 786-0 [19] = assay: Inhibition of RSL3 induced lipid-ROS accumulation in human 786-0 cells incubated for 2.5 hrs by C11-BODIPY 581/591 staining coupled with flow cytometry analysis; assay type: functional, cell-based; details: dose 0.1-1 µM
# 786-0 [20] = assay: Inhibition of H2O2 induced necrosis in human 786-0 cells assessed as cell viability at 1 uM incubated for 24 hrs by CellTiter-LumiTM assay; assay type: functional, cell-based
# 786-0 [21] = assay: Effect on TFRC expression in human 786-0 cells in presence of 0.25 uM RSL3 at 1 uM incubated for 2.5 hrs by Western blot analysis; assay type: functional, cell-based
# 786-0 [22] = assay: Inhibition of RSL3-induced ferroptosis in human 786-0 cells assessed as cell viability incubated for 24 hrs by CellTiter-LumiTM assay; assay type: functional, cell-based; details: 786-0, 24 h
# 786-0 [23] = assay: Cytotoxicity against human 786-0 cells assessed as cell viability incubated for 24 hrs by CellTiter-LumiTM assay; assay type: functional
# 786-0 [24] = assay: Inhibition of STS induced apoptosis in human 786-0 cells assessed as cell viability at 1 uM incubated for 24 hrs by CellTiter-LumiTM assay; assay type: functional, cell-based
# 786-0 [25] = assay: Effect on IRP1 expression in human 786-0 cells at 1 uM incubated for 2.5 hrs by western blot analysis; assay type: functional, cell-based
# 786-0 [26] = assay: Effect on TFRC expression in human 786-0 cells at 1 uM incubated for 2.5 hrs by Western blot analysis; assay type: functional, cell-based
# 786-0 [27] = assay: Effect on FTL expression in human 786-0 cells at 1 uM incubated for 2.5 hrs by western blot analysis; assay type: functional, cell-based
# [28] = Inhibition of erastin induced ferroptosis in human 786-0 cells assessed as cell viability incubated for 24 hrs by CellTiter-LumiTM assay; assay type: functional, cell-based; details: 786-0, 24 h
# [29] = Inhibition of RSL3 induced ferroptosis in H9c2 cells assessed as cell viability incubated for 24 hrs by CellTiter-LumiTM assay; assay type: functional, cell-based; details: Rattus norvegicus, H9c2, 24 h
# 786-0 [30] = assay: Effect on FTL expression in human 786-0 cells in presence of 0.25 uM RSL3 at 1 uM incubated for 2.5 hrs by Western blot analysis; assay type: functional, cell-based
# 786-0 [31] = assay: Inhibition of RSL3 induced lipid-ROS accumulation in human 786-0 cells assessed as fast elimination at 1 uM measured after 0.25 to 2.5 hrs by C11-BODIPY 581/591 staining coupled with flow cytometry analysis; assay type: functional, cell-based; details: time 0.25-2.5 hrs
# 786-0 [32] = assay: Metal chelating activity assessed as Fe2+ chelation in human 786-0 cells assessed as intracellular ferrous ion level at 1 uM by FerroOrange fluorescent probe based assay; assay type: cell-based
# [33] = Inhibition of RSL3 induced ferroptosis in human SK-HEP1 cells assessed as cell viability incubated for 24 hrs by CellTiter-LumiTM assay; assay type: functional, cell-based; details: SK-HEP1, 24 h
# [34] = Inhibition of RSL3 induced ferroptosis in human HT-1080 cells assessed as cell viability incubated for 24 hrs by CellTiter-LumiTM assay; assay type: functional, cell-based; details: HT-1080, 24 h
# [35] = Inhibition of RSL3 induced ferroptosis in human MHCC97H cells assessed as cell viability incubated for 24 hrs by CellTiter-LumiTM assay; assay type: functional, cell-based
# SK-HEP1 [36] = assay: Inhibition of RSL3 induced lipid-ROS accumulation in human SK-HEP1 cells at 1 uM incubated for 0.5 hrs by C11-BODIPY 581/591 staining coupled with flow cytometry analysis; assay type: functional, cell-based
# [37] = Microsomal stability in human liver microsomes assessed as hepatic extraction ratio at 0.1 uM by LC-MS/MS analysis; assay type: ADME, Microsome; details: read-out: ERH
# [38] = Microsomal stability in human liver microsomes assessed as half life at 0.1 uM by LC-MS/MS analysis; assay type: ADME, Microsome; details: microsomes, 0.1 µM
# Mus musculus [39] = assay: Anti-ferroptotic activity in ConA-induced C57 mouse acute liver injury model assessed as assessed as reduction in PTGS2 mRNA levels in liver tissue at 10 mg/kg, ip pre-administered one day followed by treated with ConA measured after 24 hrs by qRT-PCR analysis; assay type: functional, organism-based; details: time 48.0 hrs
# Mus musculus [40] = assay: Anti-ferroptotic activity in ConA-induced C57 mouse acute liver injury model assessed as assessed as reduction in 4-HNE accumulation in liver tissue at 10 mg/kg, ip pre-administered one day followed by treated with ConA measured after 24 hrs by 4-HNE staining based analysis; assay type: functional, organism-based; details: time 48.0 hrs
# [41] = Metabolic stability in human plasma assessed as half life at 1 uM by LC-MS/MS analysis; assay type: ADME, cell-free
# [42] = Microsomal stability in rat liver microsomes assessed as hepatic extraction ratio at 0.1 uM by LC-MS/MS analysis; assay type: ADME, Microsome; details: read-out: ERH
# [43] = Metabolic stability in rat plasma assessed as half life at 1 uM by LC-MS/MS analysis; assay type: ADME, cell-free
# Mus musculus [44] = assay: Anti-ferroptotic activity in ConA-induced C57 mouse liver injury model assessed as reduction in ALT levels in serum at 10 mg/kg, ip pre-treated 1 day followed by treated with ConA measured after 24 hrs; assay type: functional, organism-based; details: time 2.0 day
# Mus musculus [45] = assay: Anti-ferroptotic activity in ConA-induced C57 mouse acute liver injury model assessed as reduction in malondialdehyde levels at 10 mg/kg, ip pre-administered one day followed by treated with ConA measured after 24 hrs by MDA kit assay; assay type: functional, organism-based; details: time 48.0 hrs
# Mus musculus [46] = assay: Anti-ferroptotic activity in ConA-induced C57 mouse liver injury model assessed as decrease in acute liver injury at 10 mg/kg, ip pre-administered one day followed by treated with ConA measured after 24 hrs by HE staining based analysis; assay type: functional, organism-based; details: time 48.0 hrs
# [47] = Microsomal stability in rat liver microsomes assessed as half life at 0.1 uM by LC-MS/MS analysis; assay type: ADME, Microsome; details: microsomes, 0.1 µM
# Mus musculus [48] = assay: Anti-ferroptotic activity in ConA-induced C57 mouse liver injury model assessed as reduction in AST levels in serum at 10 mg/kg, ip pre-treated 1 day followed by challenged with ConA measured after 24 hrs; assay type: functional, organism-based
smiles,measurement,setting,value
C[C@]12CC[C@H]3[C@@H](CCC4=CC(=O)CC[C@@]43C)[C@@H]1CC[C@@H]2O [TESTOSTERONE],hepatic extraction ratio at 1 µM,[1],0.994
same,CLhep predicted at 1 µM,[2],19.3 mL/min/kg
same,hepatic extraction ratio at 1 µM,[3],0.935
CC(=O)N(O)CCCCCNC(=O)CCC(=O)N(O)CCCCCNC(=O)CCC(=O)N(O)CCCCCN,Activity,[4],Active
same,Activity,786-0 [5],Active
COC(=O)c1ccc(COc2c(OC)cccc2C2N(c3ccccc3)N=C(C(C)=O)N2c2ccc(N(C)C)cc2)cc1 (stereo not given),Activity,[6],Dose-dependent-effect
same,Activity,HT-1080,Active
same,Activity,786-0 [7],inactive
same,inhibition,SK-HEP1 [8],Active
same,Activity,786-0 [9],inactive
same,Activity,786-0 [10],Active
same,EC50,786-0 [11],91 nM
same,Activity,786-0 [12],inactive
same,Activity,786-0 [13],inactive
same,inhibition,786-0 [14],Active
same,Activity,786-0 [15],inactive
same,Activity,[16],Active
same,Activity,786-0 [17],inactive
same,Activity,786-0 [18],inactive
same,inhibition,786-0 [19],Dose-dependent-effect
same,inhibition,786-0 [20],inactive
same,Activity,786-0 [21],inactive
same,EC50,786-0 [22],70 nM
same,CC50,786-0 [23],> 40000 nM
same,inhibition,786-0 [24],inactive
same,Activity,786-0 [25],inactive
same,Activity,786-0 [26],inactive
same,Activity,786-0 [27],inactive
same,EC50,[28],52 nM
same,EC50,[29],171 nM
same,Activity,786-0 [30],inactive
same,inhibition,786-0 [31],Active; Eliminated As Fast As Fer-1
same,Activity,786-0 [32],inactive
same,EC50,[33],128 nM
same,EC50,[34],317 nM
same,EC50,[35],635 nM
same,inhibition,SK-HEP1 [36],Active
COc1ccc(COc2c(OC)cccc2C2N(c3ccccc3)N=C(C(C)=O)N2c2ccc(N(C)C)cc2)cc1 (stereo not given),Activity,[6],Dose-dependent-effect
same,Activity,HT-1080,Active
same,Activity,786-0 [7],inactive
same,hepatic extraction ratio at 0.1 µM,[37],0.99
same,inhibition,SK-HEP1 [8],Active
same,Activity,786-0 [9],No effect
same,EC50,786-0 [11],84 nM
same,Activity,786-0 [12],No effect
same,Activity,786-0 [13],inactive
same,t1/2,[38],4.02 min
same,inhibition,786-0 [14],Active
same,Activity,786-0 [15],inactive
same,Activity,Mus musculus [39],Active
same,Activity,Mus musculus [40],Active
same,Activity,[16],Active
same,Activity,786-0 [17],No effect
same,Activity,786-0 [18],No effect
same,inhibition,786-0 [19],Dose-dependent-effect
same,half-life at 1 µM,[41],23.9 h
same,inhibition,786-0 [20],inactive
same,Activity,786-0 [21],inactive
same,hepatic extraction ratio at 0.1 µM,[42],0.993
same,half-life at 1 µM,[43],4.97 h
same,EC50,786-0 [22],80 nM
same,CC50,786-0 [23],> 10000 nM
same,inhibition,786-0 [24],inactive
same,Activity,Mus musculus [44],Active
same,Activity,786-0 [25],No effect
same,Activity,786-0 [26],No effect
same,Activity,786-0 [27],No effect
same,EC50,[28],54 nM
same,EC50,[29],142 nM
same,Activity,Mus musculus [45],Active
same,Activity,786-0 [30],inactive
same,inhibition,786-0 [31],Active; Eliminated As Fast As Fer-1
same,Activity,Mus musculus [46],Active
same,t1/2,[47],1.66 min
same,Activity,786-0 [32],inactive
same,EC50,[33],164 nM
same,EC50,[34],74 nM
same,EC50,[35],349 nM
same,Activity,Mus musculus [48],Active
same,inhibition,SK-HEP1 [36],Active
